In ChEMBL document CHEMBL1128615, “Design, synthesis and evaluation of novel bismustard cross-linked lexitropsins” (1995):

Assays:
Nucleic Acid [1] = test: Compound was evaluated for its ability of alkylation of DNA; format: nucleic-acid assay; conditions: Bos taurus
Nucleic Acid [2] = test: Compound was evaluated for its binding affinity to homo poly(dA-dT) polymer using ethidium displacement assay; format: nucleic-acid assay
Nucleic Acid [3] = test: Compound was evaluated for binding affinity to alternating poly(dA)-poly(dT) polymer using ethidium displacement assay; format: nucleic-acid assay
Nucleic Acid [4] = test: Compound was evaluated for binding affinity to calf thymus DNA using ethidium displacement assay; format: nucleic-acid assay; conditions: Bos taurus
Nucleic Acid [5] = test: Compound was evaluated for binding affinity to poly(dG-dC) polymer using ethidium displacement assay; format: nucleic-acid assay
KB = test: Compound was evaluated for cytotoxicity measured as TD50; format: functional; conditions: Homo sapiens, read-out: TD50 (the source's name)
Nucleic Acid [6] = test: Binding affinity to alternating poly(dA)-poly(dT) polymer using ethidium displacement assay; format: nucleic-acid assay; conditions: Bos taurus
Nucleic Acid [7] = test: Compound was evaluated for binding affinity to homo poly(dA-dT) polymer using ethidium displacement assay; format: nucleic-acid assay

CN(C)CCCNC(=O)c1cc(NC(=O)c2cc(NC(=O)c3ccc(N(CCCl)CCCl)cc3)cn2CCCCCCCCCCn2cc(NC(=O)c3ccc(N(CCCl)CCCl)cc3)cc2C(=O)Nc2cc(C(=O)NCCCN(C)C)n(C)c2)cn1C gave an Alkylation (Nucleic Acid [1]) of 7.3%, a C50 (Nucleic Acid [2]) of 1.78 µM and a C50 (Nucleic Acid [3]) of 1.1 µM. For the same compound, the C50 (Nucleic Acid [4]) was 2.02 µM, the Kb (Nucleic Acid [4]) was 2.74e+06 M⁻¹ and the C50 (Nucleic Acid [5]) was 1.96 µM. It also gave a Kb (Nucleic Acid [5]) of 1.04e+07 M⁻¹ and a CC50 (KB) of 44.2 µM.
CN(C)CCCNC(=O)c1cc(NC(=O)c2cc(NC(=O)c3ccc(N(CCCl)CCCl)cc3)cn2CCCCCCCCCCCCn2cc(NC(=O)c3ccc(N(CCCl)CCCl)cc3)cc2C(=O)Nc2cc(C(=O)NCCCN(C)C)n(C)c2)cn1C showed a C50 (Nucleic Acid [2]) of 1.06 µM, a C50 (Nucleic Acid [3]) of 1.31 µM and a C50 (Nucleic Acid [4]) of 3.17 µM. It also gave a Kb (Nucleic Acid [4]) of 1.73e+06 M⁻¹, a C50 (Nucleic Acid [5]) of 2.11 µM and a Kb (Nucleic Acid [5]) of 9.66e+06 M⁻¹. For the same compound, the CC50 (KB) was 36.3 µM.
Compound CN(C)CCCNC(=O)c1cc(NC(=O)c2cc(NC(=O)c3ccc(N(CCCl)CCCl)cc3)cn2CCCCCCCCCCCn2cc(NC(=O)c3ccc(N(CCCl)CCCl)cc3)cc2C(=O)Nc2cc(C(=O)NCCCN(C)C)n(C)c2)cn1C has an Alkylation (Nucleic Acid [1]) of 12%, a C50 (Nucleic Acid [2]) of 1.1 µM and a C50 (Nucleic Acid [3]) of 1.2 µM. The C50 (Nucleic Acid [4]) was 1.63 µM, the Kb (Nucleic Acid [4]) was 3.42e+06 M⁻¹ and the C50 (Nucleic Acid [5]) was 2.46 µM. The Kb (Nucleic Acid [5]) was 8.25e+06 M⁻¹ and the CC50 (KB) was 35.8 µM.
In the case of CN(C)CCCNC(=O)c1cc(NC(=O)c2cc(NC(=O)c3ccc(N(CCCl)CCCl)cc3)cn2C)cn1C, the Kb (Nucleic Acid [6]) was 6.06e+06 M⁻¹, the Kb (Nucleic Acid [7]) was 3.41e+06 M⁻¹ and the Alkylation (Nucleic Acid [1]) was 11%. It also gave a C50 (Nucleic Acid [2]) of 2.85 µM, a C50 (Nucleic Acid [3]) of 0.199 µM and a C50 (Nucleic Acid [4]) of 5.1 µM. It also gave a Kb (Nucleic Acid [4]) of 1.07e+06 M⁻¹, a C50 (Nucleic Acid [5]) of 11 µM and a Kb (Nucleic Acid [5]) of 1.81e+06 M⁻¹. It also gave a CC50 (KB) of 5 µM.
Work on CN(C)CCCNC(=O)c1cc(NC(=O)c2cc(NC(=O)c3ccc(N(CCCl)CCCl)cc3)cn2CCCCCCCCCn2cc(NC(=O)c3ccc(N(CCCl)CCCl)cc3)cc2C(=O)Nc2cc(C(=O)NCCCN(C)C)n(C)c2)cn1C yielded an Alkylation (Nucleic Acid [1]) of 6.7%, a C50 (Nucleic Acid [2]) of 1.3 µM and a C50 (Nucleic Acid [3]) of 1.31 µM. It also gave a C50 (Nucleic Acid [4]) of 1.74 µM, a Kb (Nucleic Acid [4]) of 3.2e+06 M⁻¹ and a C50 (Nucleic Acid [5]) of 1.97 µM. The Kb (Nucleic Acid [5]) was 1.04e+07 M⁻¹ and the CC50 (KB) was > 79.2 µM.
In the case of CN(C)CCCNC(=O)c1cc(NC(=O)c2cc(NC(=O)c3ccc(N(CCCl)CCCl)cc3)cn2CCCCCCCCn2cc(NC(=O)c3ccc(N(CCCl)CCCl)cc3)cc2C(=O)Nc2cc(C(=O)NCCCN(C)C)n(C)c2)cn1C, the Alkylation (Nucleic Acid [1]) was 7.1%, the C50 (Nucleic Acid [2]) was 0.802 µM and the C50 (Nucleic Acid [3]) was 0.535 µM. It also gave a C50 (Nucleic Acid [4]) of 1.02 µM, a Kb (Nucleic Acid [4]) of 5.6e+06 M⁻¹ and a C50 (Nucleic Acid [5]) of 1.64 µM. The Kb (Nucleic Acid [5]) was 1.25e+07 M⁻¹ and the CC50 (KB) was > 79.2 µM.
